Data taken from patent US10271552B2, “Heterocyclic compounds as pesticides” (Bayer CropScience Aktiengesellschaft, priority 2015, dated 2019).

What was measured:
Assay type in all cases: in vivo
Boophilus microplus = Boophilus microplus injection test; details: 20 μg/animal injected; adult engorged female ticks; after 7 days
Protocol: Boophilus microplus—Injection Test
(§1) Solvent: dimethyl sulfoxide
To produce a suitable preparation of active compound, 10 mg of active compound are dissolved in 0.5 ml solvent, and the concentrate is diluted with solvent to the desired concentration.
Five adult engorged female ticks (Boophilus microplus) are injected with 1 μl compound solution into the abdomen. The ticks are transferred into replica plates and incubated in a climate chamber.
After 7 days egg deposition of fertile eggs is monitored. Eggs where fertility is not visible are stored in a climate chamber till hatching after about 42 days. An efficacy of 100% means all eggs are infertile; 0% means all eggs are fertile.

Plutella xylostella = Plutella xylostella spray test; details: 100 ppm; cabbage leaves, larvae; after 7 days
Protocol: Plutella xylostella—Spray Test
Solvent: 14 parts by weight of dimethylformamide
Emulsifier: alkylaryl polyglycol ether
To produce a suitable preparation of active compound, 1 part by weight of active compound is mixed with the stated amount of solvent and is diluted with water, containing an emulsifier concentration of 1000 ppm, to the desired concentration. Further test concentrations are prepared by dilution with emulsifier containing water.
Cabbage leaves (Brassica oleracea) are treated by being sprayed with the preparation of the active compound of the desired concentration and are infested with larvae of the diamondback moth (Plutella xylostella).
After 7 days, mortality in % is determined. 100% means all the caterpillars have been killed and 0% means none of the caterpillars have been killed.

Meloidogyne incognita = Meloidogyne incognita test; details: 20 ppm; eggs and larvae, salad seeds in sand; after 14 days
Protocol: Meloidogyne incognita—Test
Solvent: 125.0 parts by weight of acetone
To produce a suitable preparation of active compound, 1 part by weight of active compound is mixed with the stated amount of solvent, and the concentrate is diluted with water to the desired concentration.
Vessels are filled with sand, a solution of the active ingredient, a suspension containing eggs and larvae of the southern root-knot nematode (Meloidogyne incognita) and salad seeds. The salad seeds germinate and the seedlings grow. Galls develop in the roots.
After 14 days the nematicidal activity is determined on the basis of the percentage of gall formation. 100% means no galls were found and 0% means the number of galls found on the roots of the treated plants was equal to that in untreated control plants.

Diabrotica balteata = Diabrotica balteata spray test; details: 160 μg/well; germinated wheat seeds, larvae; after 7 days
Protocol: Diabrotica Balteata—Spray Test
Solvent: 78.0 parts by weight of acetone • • 1.5 parts by weight of dimethylformamide
Emulsifier: alkylarylpolyglycol ether
To produce a suitable preparation of active compound, 1 part by weight of active compound is mixed with the stated amount of solvent, and the concentrate is diluted with water, containing an emulsifier concentration of 1000 ppm, to the desired concentration. Further test concentrations are prepared by dilution with emulsifier containing water.
Soaked wheat seeds (Triticum aestivum) are placed in a multiple well plate filled with agar and some water and are incubated for 1 day to germinate (5 seeds per well). The germinated wheat seeds are sprayed with a test solution containing the desired concentration of the active ingredient. Afterwards each unit is infected with 10-20 larvae of the banded cucumber beetle (Diabrotica balteata).
After 7 days efficacy in % is determined. 100% means all the seedlings have grown up like in the untreated, uninfected control; 0% means none of the seedlings have grown.

Musca domestica = Musca domestica test; details: 100 ppm; adult house flies; after 2 days
Protocol: as §1
To produce a suitable preparation of active compound, 10 mg of active compound are dissolved in 0.5 ml solvent, and the concentrate is diluted with water to the desired concentration.
10 adult house flies (Musca domestica) are transferred into a container, containing a sponge soaked with a mixture of sugar solution and compound solution of the desired concentration.
After 2 days mortality in % is determined. 100% means all the flies have been killed; 0% means none of the flies have been killed.

O=C(Nc1nc(-c2c(F)cccc2F)ns1)c1c(F)cccc1C(F)(F)F [Compound I-1-12]
100%: efficacy (infertile eggs) (Boophilus microplus) | mortality (Plutella xylostella) | nematicidal activity (gall formation) (Meloidogyne incognita)

O=C(Nc1nc(-c2ccccc2F)ns1)c1cccnc1C(F)(F)F [Compound I-1-57]
100%: efficacy (infertile eggs) (Boophilus microplus) | efficacy (seedling growth) (Diabrotica balteata) | mortality (Musca domestica)
